Laboratory results: ChEMBL document CHEMBL1148302, “Discovery of diarylacrylonitriles as a novel series of small molecule sortase A inhibitors” (J Med Chem, 2004)
pIC50: −log10 of the molar value.

target: T1, Sortase A (Staphylococcus aureus, UniProt Q9S446); assay: Inhibitory activity towards SrtA (sortase A)
T1 sequence (Q9S446 whole entry): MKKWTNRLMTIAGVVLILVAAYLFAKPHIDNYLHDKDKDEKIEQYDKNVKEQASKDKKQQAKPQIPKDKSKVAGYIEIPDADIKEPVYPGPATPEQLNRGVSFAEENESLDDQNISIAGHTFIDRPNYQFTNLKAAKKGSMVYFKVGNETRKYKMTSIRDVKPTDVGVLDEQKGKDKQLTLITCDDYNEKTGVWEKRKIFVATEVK

Structure (SMILES)	pIC50
COc1ccc(CCc2ccc(OC)cc2)cc1	< 3.00
COc1ccc(/C=C(/C(=O)O)c2ccc(OC)cc2)cc1	< 3.00
COc1ccc(/C=C/c2ccc(OC)cc2)cc1	< 3.00
COC(=O)/C(=C/c1ccc(OC)cc1)c1ccc(OC)cc1	3.64
COc1ccc(/C=C(/C#N)c2ccc(OC)cc2)cc1	3.73
COC(=O)/C(=C\c1ccc(OC)cc1)c1ccc(OC)cc1	3.04
COc1ccc(CC(C#N)c2ccc(OC)cc2)cc1 (stereo unspecified)	< 3.00
COc1ccc(/C=C(/C(N)=O)c2ccc(OC)cc2)cc1	3.32
COC(=O)C(Cc1ccc(OC)cc1)c1ccc(OC)cc1 (stereo unspecified)	< 3.00
COc1ccc(/C=C\c2ccc(OC)cc2)cc1	< 3.00
COc1ccc(/C(C#N)=C/c2cc(OC)ccc2OC)cc1	5.03
COc1ccc(/C(C#N)=C/c2cccc(OC)c2)cc1	4.76
COc1ccc(/C(C#N)=C/c2ccc(OC)c(OC)c2)cc1	4.64
COc1ccc(/C(C#N)=C/c2ccccc2OC)cc1	4.44
COc1ccc(/C=C(\C#N)c2ccc(OC)cc2)cc1	4.55
COc1ccc(/C(C#N)=C/c2cc(OC)cc(OC)c2)cc1	4.59
